Tests used:
[1] = Molar enthalpy of transition or fusion; settings: Crystal 2; DSC
[2] = for molar entropy / mass density: 101.33 kPa; for mass density: X-ray diffraction

O=P([O-])([O-])[O-].[Cs+].[Ni+2] [cesium nickel monophosphate]
Settings | Molar enthalpy of transition or fusion [kcal/mol]
[1] | 0.336

[2]
Settings | mass density [kg/m3] | molar entropy [J/K/mol]
5 K, Crystal 2, Small (less than 1 g) adiabatic calorimetry | – | 0.4664
6 K, Crystal 2, Small (less than 1 g) adiabatic calorimetry | – | 0.6618
7 K, Crystal 2, Small (less than 1 g) adiabatic calorimetry | – | 0.8896
8 K, Crystal 2, Small (less than 1 g) adiabatic calorimetry | – | 1.147
9 K, Crystal 2, Small (less than 1 g) adiabatic calorimetry | – | 1.438
10 K, Crystal 2, Small (less than 1 g) adiabatic calorimetry | – | 1.763
15 K, Crystal 2, Small (less than 1 g) adiabatic calorimetry | – | 3.941
20 K, Crystal 2, Small (less than 1 g) adiabatic calorimetry | – | 6.944
25 K, Crystal 2, Small (less than 1 g) adiabatic calorimetry | – | 10.43
30 K, Crystal 2, Small (less than 1 g) adiabatic calorimetry | – | 14.35
35 K, Crystal 2, Small (less than 1 g) adiabatic calorimetry | – | 18.52
40 K, Crystal 2, Small (less than 1 g) adiabatic calorimetry | – | 22.78
45 K, Crystal 2, Small (less than 1 g) adiabatic calorimetry | – | 27.1
50 K, Crystal 2, Small (less than 1 g) adiabatic calorimetry | – | 31.46
60 K, Crystal 2, Small (less than 1 g) adiabatic calorimetry | – | 40.28
70 K, Crystal 2, Small (less than 1 g) adiabatic calorimetry | – | 49.01
80 K, Crystal 2, Small (less than 1 g) adiabatic calorimetry | – | 57.49
90 K, Crystal 2, Small (less than 1 g) adiabatic calorimetry | – | 65.63
100 K, Crystal 2, Small (less than 1 g) adiabatic calorimetry | – | 73.47
110 K, Crystal 2, Small (less than 1 g) adiabatic calorimetry | – | 81.12
120 K, Crystal 2, Small (less than 1 g) adiabatic calorimetry | – | 88.55
130 K, Crystal 2, Small (less than 1 g) adiabatic calorimetry | – | 95.7
140 K, Crystal 2, Small (less than 1 g) adiabatic calorimetry | – | 102.6
150 K, Crystal 2, Small (less than 1 g) adiabatic calorimetry | – | 109.34
160 K, Crystal 2, Small (less than 1 g) adiabatic calorimetry | – | 115.9
170 K, Crystal 2, Small (less than 1 g) adiabatic calorimetry | – | 122.31
180 K, Crystal 2, Small (less than 1 g) adiabatic calorimetry | – | 128.54
190 K, Crystal 2, Small (less than 1 g) adiabatic calorimetry | – | 134.69
200 K, Crystal 2, Small (less than 1 g) adiabatic calorimetry | – | 140.68
210 K, Crystal 2, Small (less than 1 g) adiabatic calorimetry | – | 146.58
220 K, Crystal 2, Small (less than 1 g) adiabatic calorimetry | – | 152.32
230 K, Crystal 2, Small (less than 1 g) adiabatic calorimetry | – | 157.89
240 K, Crystal 2, Small (less than 1 g) adiabatic calorimetry | – | 163.38
250 K, Crystal 2, Small (less than 1 g) adiabatic calorimetry | – | 168.7
260 K, Crystal 2, Small (less than 1 g) adiabatic calorimetry | – | 173.94
270 K, Crystal 2, Small (less than 1 g) adiabatic calorimetry | – | 179.09
273.15 K, Crystal 2, Small (less than 1 g) adiabatic calorimetry | – | 180.67
280 K, Crystal 2, Small (less than 1 g) adiabatic calorimetry | – | 184.17
290 K, Crystal 2, Small (less than 1 g) adiabatic calorimetry | – | 189.15
298 K, Crystal 2 | 4218.3 | –
298.15 K, Crystal 2, Small (less than 1 g) adiabatic calorimetry | – | 193.23
300 K, Crystal 2, Small (less than 1 g) adiabatic calorimetry | – | 194.14
310 K, Crystal 2, Small (less than 1 g) adiabatic calorimetry | – | 199.13
320 K, Crystal 2, Small (less than 1 g) adiabatic calorimetry | – | 204.04
330 K, Crystal 2, Small (less than 1 g) adiabatic calorimetry | – | 208.86
340 K, Crystal 2, Small (less than 1 g) adiabatic calorimetry | – | 213.68
350 K, Crystal 2, Small (less than 1 g) adiabatic calorimetry | – | 218.42
360 K, Crystal 2, Small (less than 1 g) adiabatic calorimetry | – | 223.08
370 K, Crystal 2, Small (less than 1 g) adiabatic calorimetry | – | 227.82
380 K, Crystal 2, Small (less than 1 g) adiabatic calorimetry | – | 232.47
382.8 K, Crystal 1, DSC | – | 237.46
382.8 K, Crystal 2, Small (less than 1 g) adiabatic calorimetry | – | 233.72
390 K, Crystal 1, DSC | – | 240.7
400 K, Crystal 1, DSC | – | 245.19
410 K, Crystal 1, DSC | – | 249.52
420 K, Crystal 1, DSC | – | 253.76
430 K, Crystal 1, DSC | – | 257.83
440 K, Crystal 1, DSC | – | 261.82
450 K, Crystal 1, DSC | – | 265.73
460 K, Crystal 1, DSC | – | 269.64
470 K, Crystal 1, DSC | – | 273.38
473 K, Crystal 1 | 4124 | –
480 K, Crystal 1, DSC | – | 277.04
490 K, Crystal 1, DSC | – | 280.7
500 K, Crystal 1, DSC | – | 284.27
510 K, Crystal 1, DSC | – | 287.76
520 K, Crystal 1, DSC | – | 291.17
530 K, Crystal 1, DSC | – | 294.58
540 K, Crystal 1, DSC | – | 297.91
550 K, Crystal 1, DSC | – | 301.23
560 K, Crystal 1, DSC | – | 304.48
570 K, Crystal 1, DSC | – | 307.64
573 K, Crystal 1 | 4090 | –
580 K, Crystal 1, DSC | – | 310.79
590 K, Crystal 1, DSC | – | 313.87
600 K, Crystal 1, DSC | – | 316.86
610 K, Crystal 1, DSC | – | 319.86
620 K, Crystal 1, DSC | – | 322.85
630 K, Crystal 1, DSC | – | 325.76
640 K, Crystal 1, DSC | – | 328.67
650 K, Crystal 1, DSC | – | 331.58
673 K, Crystal 1 | 4080 | –
773 K, Crystal 1 | 4040 | –
873 K, Crystal 1 | 4030 | –
973 K, Crystal 1 | 4000 | –
1073 K, Crystal 1 | 3980 | –

Settings | Triple point temperature [K]
[2], Crystal 2, DSC | 382.8
